Like-named read-outs stand apart in the source and are kept apart here.
Columns and labels:
human VMAT2 [1] = biological target: T1, human VMAT2 (Homo sapiens, UniProt Q05940); assay: cell-based; details: for VMAT2 inhibitor strength (in words): short-term exposure, up to 100 μM; for Effect on FFN206 uptake / vesicular loading: tested at 0.01, 0.1, 1, 10 and 100 μM
human VMAT2 [2] = biological target: T1, human VMAT2; assay: Real-time uptake of FFN206 with confocal microscopy in HEK+VMAT2 cells; format: cell-based; details: 20 μM FFN206; one-way ANOVA, p <0.0001 vs HEK+VMAT2
[3] = 100 nM rotenone; after 48 hours; from mitochondrial complex I inhibition; cited from earlier work

T1 sequence (Q05940 whole entry): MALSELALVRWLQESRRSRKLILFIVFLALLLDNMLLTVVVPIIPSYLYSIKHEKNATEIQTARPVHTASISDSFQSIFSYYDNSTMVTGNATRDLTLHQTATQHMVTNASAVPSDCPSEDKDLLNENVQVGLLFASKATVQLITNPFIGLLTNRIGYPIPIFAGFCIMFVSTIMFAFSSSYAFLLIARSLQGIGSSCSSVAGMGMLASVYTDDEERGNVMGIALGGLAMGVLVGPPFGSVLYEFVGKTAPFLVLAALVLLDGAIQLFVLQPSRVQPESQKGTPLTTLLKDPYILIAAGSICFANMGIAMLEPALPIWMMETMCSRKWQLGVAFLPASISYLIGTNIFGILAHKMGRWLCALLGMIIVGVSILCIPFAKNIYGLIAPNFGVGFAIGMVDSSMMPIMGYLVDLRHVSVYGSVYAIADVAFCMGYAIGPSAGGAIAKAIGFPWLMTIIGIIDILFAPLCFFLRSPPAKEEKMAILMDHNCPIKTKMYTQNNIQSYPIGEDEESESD

## O=S(=O)(O)C(F)(F)C(F)(F)C(F)(F)C(F)(F)C(F)(F)C(F)(F)C(F)(F)C(F)(F)F [PFOS, perfluorooctanesulfonic acid]
Human VMAT2 [1]; HEK+VMAT2 cells
  VMAT2 inhibitor strength (in words): weak inhibitors of VMAT2
  Effect on FFN206 uptake / vesicular loading: did not show impairment of vesicular loading

## CO/C1=C\C(C)=C\[C@@H](C)[C@@H](O)[C@@H](C)C/C(C)=C/C=C/[C@H](OC)[C@@H]([C@@H](C)[C@@H](O)[C@H](C)[C@@]2(O)C[C@@H](O)[C@H](C)[C@@H](C(C)C)O2)OC1=O [bafilomycin, reference compound]
Human VMAT2 [1]; HEK+VMAT2 cells, 10 μM tetrabenazine, bafilomycin data not shown
  Effect on FFN206 fluorescence: depleted FFN206 fluorescence
Human VMAT2 [2]
  FFN206 fluorescence in final 20 seconds of 1000 seconds uptake vs HEK+VMAT2: decreased FFN206 fluorescence

## CCOP(=S)(OCC)Oc1nc(Cl)c(Cl)cc1Cl [chlorpyrifos]
Human VMAT2 [1]; HEK+VMAT2 cells
  Effect on FFN206 uptake / vesicular loading: minor decrease in FFN206 uptake at the highest concentration

## CN[C@@H](C)Cc1ccccc1 [methamphetamine, reference compound]
Human VMAT2 [1]
  IC50: 2.4 µM
Human VMAT2 [1]; HEK+VMAT2 cells, dose response, 1 μM FFN206
  Concentration showing essentially complete / total inhibition of VMAT2: ≤ 100 µM

## COC(=O)C(c1ccccc1)C1CCCCN1 (centres unmarked) [methylphenidate, reference compound]
Human VMAT2 [1]
  IC50: 94.3 µM

## C[n+]1ccc(-c2cc[n+](C)cc2)cc1 [paraquat]
Human VMAT2 [1]
  IC50: 12.4 µM

## C=C(C)[C@H]1Cc2c(ccc3c2O[C@@H]2COc4cc(OC)c(OC)cc4[C@@H]2C3=O)O1 [rotenone]
Human VMAT2 [1]; HEK+VMAT2 cells, 90 minutes total exposure
  Concentration at which a reduction in VMAT2 function was detected: 100 µM
Human VMAT2 [1]; HEK+VMAT2 cells
  Effect on FFN206 uptake / vesicular loading: minor decrease in FFN206 uptake at the highest concentration
[3]
  Cell death: 70–80%

## COc1cc2c(cc1OC)C1CC(=O)C(CC(C)C)CN1CC2 (centres unmarked) [tetrabenazine, reference compound]
Human VMAT2 [1]
  Concentration showing essentially complete / total inhibition of VMAT2: 1 µM
  Effect on FFN206 fluorescence: almost total loss of FFN206 fluorescence
Human VMAT2 [2]
  FFN206 fluorescence in final 20 seconds of 1000 seconds uptake vs HEK+VMAT2: significant differences

## hexabromocyclododecane
Human VMAT2 [1]; HEK+VMAT2 cells
  VMAT2 inhibitor strength (in words): weak inhibitors of VMAT2
  Effect on FFN206 uptake / vesicular loading: did not show impairment of vesicular loading

From paper PMC8131219 (Chemical research in toxicology, 2020)
